Where two headings read alike, the source gives them in different places.
Molecular target: T1, mouse TMEM16A mutant S517A (Mus musculus, UniProt Q8BHY3, S517A)
T1 construct: expressed in transfected cells; host or cells: HEK293T
T1 sequence (Q8BHY3 1-960 S517A): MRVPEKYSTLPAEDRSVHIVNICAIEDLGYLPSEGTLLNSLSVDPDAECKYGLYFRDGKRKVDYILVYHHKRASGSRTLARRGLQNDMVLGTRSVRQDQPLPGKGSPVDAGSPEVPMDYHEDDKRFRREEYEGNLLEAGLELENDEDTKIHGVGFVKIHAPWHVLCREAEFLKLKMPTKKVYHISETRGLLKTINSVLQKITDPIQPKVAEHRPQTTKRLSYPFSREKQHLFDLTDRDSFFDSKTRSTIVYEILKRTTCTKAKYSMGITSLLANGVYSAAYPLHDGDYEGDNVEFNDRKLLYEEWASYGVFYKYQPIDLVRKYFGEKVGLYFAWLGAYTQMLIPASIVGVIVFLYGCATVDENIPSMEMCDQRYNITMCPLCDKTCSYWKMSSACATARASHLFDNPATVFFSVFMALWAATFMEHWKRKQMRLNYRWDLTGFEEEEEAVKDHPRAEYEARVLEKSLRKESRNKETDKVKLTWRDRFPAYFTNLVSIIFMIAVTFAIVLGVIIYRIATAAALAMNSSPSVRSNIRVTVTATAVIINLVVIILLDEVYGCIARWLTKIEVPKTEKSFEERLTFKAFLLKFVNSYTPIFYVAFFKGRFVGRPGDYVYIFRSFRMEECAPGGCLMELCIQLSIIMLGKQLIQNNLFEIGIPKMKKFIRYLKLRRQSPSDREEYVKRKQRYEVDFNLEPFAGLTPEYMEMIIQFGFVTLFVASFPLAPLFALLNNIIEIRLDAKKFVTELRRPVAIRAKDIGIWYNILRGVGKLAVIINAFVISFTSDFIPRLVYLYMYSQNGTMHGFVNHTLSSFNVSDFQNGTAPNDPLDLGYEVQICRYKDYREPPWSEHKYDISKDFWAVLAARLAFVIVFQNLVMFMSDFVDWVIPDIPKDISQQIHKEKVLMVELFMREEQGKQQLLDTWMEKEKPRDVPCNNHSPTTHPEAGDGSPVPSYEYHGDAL
Assay: Inside-out patch recording of 1PBC block, mutant S517A
Type: cell-based
Conditions: for remaining activity at 1 µM: 1PBC 1; for remaining activity at 1 µM / remaining activity at 3 µM / remaining activity at 10 µM / remaining activity at 30 µM / remaining activity at 100 µM: read-out: fraction of unblocked current; for remaining activity at 3 µM: 1PBC 3; for remaining activity at 10 µM: 1PBC 10; for remaining activity at 30 µM: 1PBC 30; for remaining activity at 100 µM: 1PBC 100
Experimental: HEK293T cells (ATCC CRL-1573) were maintained in Dulbecco’s modified Eagle’s medium (DMEM; Sigma-Aldrich) supplemented with 10 U ml^−1 penicillin, 0.1 mg ml^−1 streptomycin (Sigma-Aldrich), 2 mM L-glutamine (Sigma-Aldrich), and 10% FBS (Sigma-Aldrich) in a humidified atmosphere containing 5% CO2 at 37 °C. HEK293S GnTI^− cells (ATCC CRL-3022) were maintained in HyClone HyCell TransFx-H medium (GE Healthcare) supplemented with 10 U ml^−1 penicillin, 0.1 mg ml^−1 streptomycin, 4 mM L-glutamine, 0.15% poloxamer 188 (Sigma-Aldrich), and 1% FBS in an atmosphere containing 5% CO2 at 185 rpm at 37 °C. The ac splice variant of mouse TMEM16A (UniProt ID: Q8BHY3), mouse TMEM16B (UniProt ID: Q8CFW1), or mouse TMEM16F (UniProt ID: Q6P9J9) bearing a 3C cleavage site, a Venus YFP, a Myc tag, and a Streptavidin-binding peptide (SBP) downstream of the open reading frame in a modified pcDNA3.1 vector (Invitrogen) were used as described previously[21],[31]. Mutations were introduced using a modified QuikChange method[58] and were verified by sequencing.
HEK293T cells were transfected with 3–4 μg DNA per 6 cm Petri dish using the calcium phosphate co-precipitation method and were used within 24–96 h after transfection. Recordings were performed on inside-out patches excised from HEK293T cells expressing the construct of interest. Patch pipettes were pulled from borosilicate glass capillaries (O.D. 1.5 mm, I.D. 0.86 mm, Sutter Instrument) and were fire-polished with a microforge (Narishige) before use. Pipette resistance was typically 3–8 MΩ when filled with the recording solutions detailed below. Seal resistance was typically 4 GΩ or higher. Voltage-clamp recordings were made using Axopatch 200B, Digidata 1550, and Clampex 10.7 (Molecular Devices). Analog signals were filtered with the in-built 4-pole Bessel filter at 10 kHz and were digitized at 20 kHz. Solution exchange was achieved using a gravity-fed system through a theta glass pipette mounted on an ultra-fast piezo-driven stepper (Siskiyou). […] All recordings were performed at 20 °C.
A symmetrical ionic condition was used throughout. Stock solution with Ca^2+-EGTA contained 150 mM NaCl, 5.99 mM Ca(OH)2, 5 mM EGTA, and 10 mM HEPES at pH 7.40. Stock solution with EGTA contained 150 mM NaCl, 5 mM EGTA, and 10 mM HEPES at pH 7.40. Free Ca^2+ concentrations were adjusted by mixing the stock solutions at the required ratios calculated using the WEBMAXC program (http://web.stanford.edu/~cpatton/webmaxcS.htm). Patch pipettes were filled with the stock solution with Ca^2+-EGTA, which has a free Ca^2+ concentration of 1 mM. 1PBC (ChemBridge) stock was reconstituted in anhydrous DMSO (Sigma-Aldrich) at 100 mM and stored at −20 °C. Working solutions with 1PBC were prepared by serial dilution. Unless otherwise stated, experiments were performed at a saturating Ca^2+ concentration as shown in Supplementary Table 1 and the primary data were corrected for current rundown as described previously[21],[25].
Concentration-response relations, obtained from the ratio of the I-V plots before and after the application of the blocker, were fitted to the Hill equation,1 I/Imax=1/1+IC50/[blocker]^h where I/Imax is the normalized current responses, IC50 defines the concentration at which inhibition is at its half-maximum, and h is the Hill coefficient.

IC50 (0 mV, 2 µM Ca2+): 4.87 µM
remaining activity at 1 µM (0 mV): 80.6%
remaining activity at 1 µM (20 mV): 76.4%
remaining activity at 1 µM (40 mV): 72.2%
remaining activity at 1 µM (60 mV): 68.1%
remaining activity at 1 µM (80 mV): 65.8%
remaining activity at 1 µM (100 mV): 66.4%
remaining activity at 1 µM (120 mV): 68.4%
remaining activity at 1 µM (140 mV): 72%
remaining activity at 1 µM (-20 mV): 84.8%
remaining activity at 1 µM (-40 mV): 89.1%
remaining activity at 1 µM (-60 mV): 92.3%
remaining activity at 1 µM (-80 mV): 93.4%
remaining activity at 1 µM (-100 mV): 95%
remaining activity at 1 µM (-120 mV): 95.3%
remaining activity at 1 µM (-140 mV): 96.6%
remaining activity at 3 µM (0 mV): 62.1%
remaining activity at 3 µM (20 mV): 56.5%
remaining activity at 3 µM (40 mV): 50.9%
remaining activity at 3 µM (60 mV): 46.8%
remaining activity at 3 µM (80 mV): 43.5%
remaining activity at 3 µM (100 mV): 42.4%
remaining activity at 3 µM (120 mV): 44.1%
remaining activity at 3 µM (140 mV): 49.1%
remaining activity at 3 µM (-20 mV): 67.7%
remaining activity at 3 µM (-40 mV): 73.3%
remaining activity at 3 µM (-60 mV): 77.2%
remaining activity at 3 µM (-80 mV): 82.9%
remaining activity at 3 µM (-100 mV): 86.4%
remaining activity at 3 µM (-120 mV): 88.8%
remaining activity at 3 µM (-140 mV): 90.8%
remaining activity at 10 µM (0 mV): 33.3%
remaining activity at 10 µM (20 mV): 28.2%
remaining activity at 10 µM (40 mV): 24.2%
remaining activity at 10 µM (60 mV): 21.4%
remaining activity at 10 µM (80 mV): 19.4%
remaining activity at 10 µM (100 mV): 17.8%
remaining activity at 10 µM (120 mV): 18.2%
remaining activity at 10 µM (140 mV): 20.6%
remaining activity at 10 µM (-20 mV): 38.5%
remaining activity at 10 µM (-40 mV): 44.6%
remaining activity at 10 µM (-60 mV): 50%
remaining activity at 10 µM (-80 mV): 54.7%
remaining activity at 10 µM (-100 mV): 59.2%
remaining activity at 10 µM (-120 mV): 64.2%
remaining activity at 10 µM (-140 mV): 67.7%
remaining activity at 30 µM (0 mV): 14.7%
remaining activity at 30 µM (20 mV): 12%
remaining activity at 30 µM (40 mV): 10.1%
remaining activity at 30 µM (60 mV): 9.12%
remaining activity at 30 µM (80 mV): 8.68%
remaining activity at 30 µM (100 mV): 8.48%
remaining activity at 30 µM (120 mV): 8.95%
remaining activity at 30 µM (140 mV): 10.1%
remaining activity at 30 µM (-20 mV): 17.4%
remaining activity at 30 µM (-40 mV): 20.4%
remaining activity at 30 µM (-60 mV): 25.6%
remaining activity at 30 µM (-80 mV): 29.2%
remaining activity at 30 µM (-100 mV): 33.1%
remaining activity at 30 µM (-120 mV): 36.2%
remaining activity at 30 µM (-140 mV): 39.2%
remaining activity at 100 µM (0 mV): 6.16%
remaining activity at 100 µM (20 mV): 4.78%
remaining activity at 100 µM (40 mV): 4.43%
remaining activity at 100 µM (60 mV): 4.02%
remaining activity at 100 µM (80 mV): 3.86%
remaining activity at 100 µM (100 mV): 3.89%
remaining activity at 100 µM (120 mV): 3.95%
remaining activity at 100 µM (140 mV): 4.21%
remaining activity at 100 µM (-20 mV): 7.53%
remaining activity at 100 µM (-40 mV): 8.84%
remaining activity at 100 µM (-60 mV): 10.3%
remaining activity at 100 µM (-80 mV): 12.6%
remaining activity at 100 µM (-100 mV): 14.7%
remaining activity at 100 µM (-120 mV): 17.1%
remaining activity at 100 µM (-140 mV): 19.8%
IC50 (20 mV, 2 µM Ca2+): 3.78 µM
IC50 (40 mV, 2 µM Ca2+): 3.01 µM
IC50 (60 mV, 2 µM Ca2+): 2.51 µM
log-fold IC50 (change of mutant vs WT) (80 mV): 0.0426
IC50 (80 mV, 2 µM Ca2+): 2.2 µM
IC50 (100 mV, 2 µM Ca2+): 2.14 µM
IC50 (120 mV, 2 µM Ca2+): 2.29 µM
IC50 (140 mV, 2 µM Ca2+): 2.76 µM
IC50 (-20 mV, 2 µM Ca2+): 6.24 µM
IC50 (-40 mV, 2 µM Ca2+): 8.08 µM
IC50 (-60 mV, 2 µM Ca2+): 10.3 µM
IC50 (-80 mV, 2 µM Ca2+): 12.8 µM
IC50 (-100 mV, 2 µM Ca2+): 15.5 µM
IC50 (-120 mV, 2 µM Ca2+): 18.4 µM
IC50 (-140 mV, 2 µM Ca2+): 21.4 µM
IC50 (S517A, V 0 mV): 4.87 µM
IC50 (S517A, V 20 mV): 3.78 µM
IC50 (S517A, V 40 mV): 3.01 µM
IC50 (S517A, V 60 mV): 2.51 µM
IC50 (S517A, V 80 mV): 2.2 µM
IC50 (S517A, V 100 mV): 2.14 µM
IC50 (S517A, V 120 mV): 2.29 µM
IC50 (S517A, V 140 mV): 2.76 µM
IC50 (S517A, V -20 mV): 6.24 µM
IC50 (S517A, V -40 mV): 8.08 µM
IC50 (S517A, V -60 mV): 10.3 µM
IC50 (S517A, V -80 mV): 12.8 µM
IC50 (S517A, V -100 mV): 15.5 µM
IC50 (S517A, V -120 mV): 18.4 µM
IC50 (S517A, V -140 mV): 21.4 µM
SMILES: N#Cc1c(C(F)(F)F)cc(O)n2c1nc1ccccc12 [1PBC]

Source: PMC9120017, “Inhibition mechanism of the chloride channel TMEM16A by the pore blocker 1PBC” (Nature Communications, 2022)
